Each structure is given as a SMILES string. Where a name gives a salt, the structure may show the parent alone.

This data set deals with conscious rats. The data set can be described thus: Determination of CNS toxicity: convulsions in conscious rats on increasing i.v. infusion. The note with it: rat, in vivo; for convulsion dose: iv. The class given is in vivo.

Take `COc1ccc(CCO[C@@H]2CCCC[C@H]2N2CC[C@H](O)C2)cc1OC.Cl` [Compound 6, (1R,2R)-2-[(3S)-Hydroxypyrrolidinyl]-1-(3,4-dimethoxyphenethoxy) cyclohexane monohydrochloride]: the cum conv dose turned out to be 472.24 µmol/kg and the convulsion dose turned out to be 64 µmol/kg/min.

The compound `COc1cc(CCCO[C@H]2CCCCC2N2CC[C@@H](O)C2)cc(Cl)c1OC.Cl` (stereo partly drawn) [Compound 21, (3R)-1-{(1R,2R)/(1S,2S)-2-[3-(3-chloro-4,5-dimethoxyphenyl)-propoxy]cyclohexyl}pyrrolidin-3-ol hydrochloride] had a cum conv dose of 90.9 µmol/kg and a convulsion dose of 13.33 µmol/kg/min.

Turning to `Brc1ccccc1CCO[C@H]1CCCCC1N1CCOCC1` (stereo partly drawn) [Compound 39, (1R,2R)/(1S,2S)-[2-(4-morpholinyl)-1-(2-bromophenethoxy)]-cyclohexane], the cum conv dose came out at 125 µmol/kg and the convulsion dose amounted to 16 µmol/kg/min.

With `Cl.Clc1cccc(Cl)c1COC1CCCC[C@H]1N1CCOCC1` (stereo partly drawn) [Compound 44, (1R,2R)/(1S,2S)-2-(4-morpholinyl)-1-[(2,6-dichlorophenyl)methoxy]cyclohexane monohydrochloride], the cum conv dose was determined as 97 µmol/kg and the convulsion dose came to 16 µmol/kg/min.

With `COc1ccc(CCO[C@H]2CCCCC2N2CCC(O)C2)cc1OC` (stereo partly drawn) [Compound 3, (1R,2R)/(1S,2S)-2-[(3R)/(3S)-Hydroxypyrrolidinyl]-1-(3,4-dimethoxyphenethoxy)-cyclohexane monohydrochloride], the cum conv dose worked out at 502 µmol/kg and the convulsion dose worked out at 64 µmol/kg/min.

Turning to `COc1ccc(CCO[C@H]2CCCCC2N2CC[C@@H](O)C2)cc1OC.Cl` (stereo partly drawn) [Compound 4, (1R,2R)/(1S,2S)-2-[(3R)-Hydroxypyrrolidinyl]-1-(3,4-dimethoxyphenethoxy)-cyclohexane monohydrochloride], the cum conv dose is 502 µmol/kg and the convulsion dose came out at 64 µmol/kg/min.

Turning to `Brc1ccc(CCO[C@H]2CCCCC2N2CCOCC2)cc1` (stereo partly drawn) [Compound 32], the cum conv dose was 91 µmol/kg and the convulsion dose amounted to 12 µmol/kg/min.

With `COc1ccc(CCCCO[C@H]2CCCCC2N2CCOCC2)cc1OC.Cl` (stereo partly drawn) [Compound 20, 4-{(1R,2R)/(1S,2S)-2-[4-(3,4-dimethoxyphenyl)-butoxy]cyclohexyl}morpholine hydrochloride], the cum conv dose came to 66.8 µmol/kg and the convulsion dose was 10.7 µmol/kg/min.

Regarding `COc1ccc(CCO[C@H]2CCCCC2N2CCC[C@@H]2CO)cc1OC.Cl` (stereo partly drawn) [Compound 15, {(2R)-1-{(1R,2R)/(1S,2S)-2-[2-(3,4-dimethoxyphenyl)-ethoxy]cyclohexyl}-pyrrolidin-2-yl}methanol hydrochloride], the cum conv dose stood at 142.33 µmol/kg and the convulsion dose amounted to 16 µmol/kg/min.

`COc1ccc(CCO[C@H]2CCCCC2N2CC[C@H](OC(C)=O)C2)cc1OC.Cl` (stereo partly drawn) [Compound 13, (3S)-1-{(1R,2R)/(1S,2S)-2-[2-(3,4-dimethoxyphenyl)-ethoxy]cyclohexyl}-pyrrolidin-3-yl acetate hydrochloride] had a cum conv dose of 51.9 µmol/kg and a convulsion dose of 8 µmol/kg/min.

Compound `c1cc(CCO[C@H]2CCCCC2N2CCOCC2)c2ccsc2c1` (stereo partly drawn) [Compound 37] showed a cum conv dose of 54 µmol/kg and a convulsion dose of 8 µmol/kg/min.

`CC(=O)OC1CCN([C@@H]2CCCCC2OCCc2cccc3ccccc23)C1.Cl` (stereo partly drawn) [Compound 43, (1R,2R)/(1S,2S)-2-(3-acetoxypyrrolidinyl)-1-(1-naphthenethoxy)cyclo hexane monohydrochloride] yielded a cum conv dose of 65 µmol/kg and a convulsion dose of 8 µmol/kg/min.

On to `c1ccc2cc(CCO[C@H]3CCCCC3N3CCOCC3)ccc2c1` (stereo partly drawn) [Compound 30, (1R,2R)/(1S,2S)-[2-(4-morpholinyl)-1-(2-naphthenethoxy)]-cyclohexane], for which the cum conv dose worked out at 85 µmol/kg and the convulsion dose came to 13.3 µmol/kg/min.

As for `Cl.OC1CCN(C2CCCC[C@@H]2OCCc2c(Cl)cccc2Cl)C1` (stereo partly drawn) [Compound 46, (1R,2R)/(1S,2S)-2-(3-hydroxypyrrolidinyl)-1-(2,6-dichlorophenethoxy) cyclohexane monohydrochloride], the cum conv dose worked out at 65 µmol/kg.

Compound `Brc1cccc(CCO[C@H]2CCCCC2N2CCOCC2)c1` (stereo partly drawn) [Compound 38, (1R,2R)/(1S,2S)-[2-(4-morpholinyl)-1-(3-bromophenethoxy)]-cyclohexane] displayed a cum conv dose of 131 µmol/kg and a convulsion dose of 16 µmol/kg/min.

The compound `Brc1ccc(OCCO[C@H]2CCCCC2N2CCOCC2)cc1` (stereo partly drawn) [Compound 34, (1R,2R)/(1S,2S)-[2-(4-morpholinyl)-1-[2-(4-bromophenoxy)-ethoxy]]cyclohexane] showed a cum conv dose of 83 µmol/kg and a convulsion dose of 10.7 µmol/kg/min.

In the case of `COc1ccc(CCOC2CCCC[C@H]2N2CCC(=O)C2)cc1OC.Cl` (stereo partly drawn) [Compound 18, 1-{(1R,2R)/(1S,2S)-2-[2-(3,4-dimethoxyphenyl)-ethoxy]cyclohexyl}-pyrrolidin-3-one hydrochloride], the cum conv dose was found to be 235 µmol/kg and the convulsion dose worked out at 32 µmol/kg/min.

Take `Cl.O=C1CCN([C@@H]2CCCCC2OCc2c(Cl)cccc2Cl)C1` (stereo partly drawn) [Compound 45, (1R,2R)/(1S,2S)-2-(3-ketopyrrolidinyl)-1-[(2,6-dichlorophenyl)methoxy]cyclohexane monohydrochloride]: the cum conv dose was 214 µmol/kg and the convulsion dose stood at 32 µmol/kg/min.

In turn, `Cl.FC(F)(F)c1ccccc1CCO[C@H]1CCCC[C@H]1N1CCOCC1` (racemic) [Compound 42, (1R,2S)/(1S,2R)-2-(4-morpholinyl)-1-[(2-trifluoromethyl)-phenethoxy]-cyclohexane monohydrochloride] registered a cum conv dose of 102 µmol/kg and a convulsion dose of 16 µmol/kg/min.

As to `c1ccc2c(CCO[C@H]3CCCCC3N3CCOCC3)cccc2c1` (stereo partly drawn) [Compound 31, (1R,2R)/(1S,2S)-[2-(4-morpholinyl)-1-(1-naphthenethoxy)]-cyclohexane], the cum conv dose worked out at 93 µmol/kg and the convulsion dose stood at 16 µmol/kg/min.

In turn, `Cl.Clc1cccc(Cl)c1CCOC1CCCC[C@H]1N1CCSC1` (stereo partly drawn) [Compound 48, (1R,2R)/(1S,2S)-2-(3-thiazolidinyl)-1-(2,6-dichlorophenethoxy) cyclohexane monohydrochloride] registered a cum conv dose of 331 µmol/kg and a convulsion dose of 43 µmol/kg/min.

Compound `Cl.O[C@@H]1CCN(C2CCCC[C@@H]2OCCc2ccccc2C(F)(F)F)C1` (stereo partly drawn) [Compound 27, (3R)-1-{(1R,2R)/(1S,2S)-2-[2-(2-Trifluoromethyl-phenyl)ethoxy]-cyclohexyl}-pyrrolidin-3-ol hydrochloride] displayed a cum conv dose of 101.93 µmol/kg and a convulsion dose of 16 µmol/kg/min.

In turn, `COc1ccc(CCOC2CCCC[C@H]2N2CC=CC2)cc1OC.Cl` (stereo partly drawn) [Compound 16, 1-{(1R,2R)/(1S,2S)-2-[2-(3,4-dimethoxyphenyl)-ethoxy]cyclohexyl}-2,5-dihydro-1H-pyrrole hydrochloride] showed a cum conv dose of 44.4 µmol/kg and a convulsion dose of 8 µmol/kg/min.
